Earlier results, collected in US20090175824A1, “Peptides for the treatment of HCV infections” (priority 2007, published 2009).

Details: patients with hepatitis C

SMILES: CC(C)(C)NC(=O)NC(C(=O)N1CC2C(C1C(=O)NC(CC1CCC1)C(=O)C(N)=O)C2(C)C)C(C)(C)C (centres unmarked) [boceprevir, N-(4-amino-1-cyclobutyl-3,4-dioxobutan-2-yl)-3-(2-(3-tert-butylureido)-3,3-dimethylbutanoyl)-6,6-dimethyl-3-azabicyclo[3.1.0]hexane-2-carboxamide]
- adverse events: infrequent and included headache, fever and myalgia
- tolerability: well-tolerated
